Experimental data from patent publication US20070015771A1, “Lonidamine analogs” (Threshold pharmaceuticals, Inc., priority 2004, published 2007).
Read-outs that look alike come from different tables or passages of the source.

Legend:
H460 cells = assay: Antiproliferation assay (Alamar Blue), H460 cells; assay type: cell-based
Procedure: (§1) To determine the effect of lonidamine and analogs thereof on cell proliferation, the antiproliferative activity of these compounds was tested in a multi-well Alamar Blue based assay (at 2 h and 3 days). Cell growth in the presence and absence of the test compound (compounds 1-22) was compared, as measured by a fluorescence plate reader at excitation 550 nm and emission 590 nm (see Biosource International Inc., Tech Application Notes, Use of Alamar Blue in the measurement of Cell Viability and Toxicity, Determining IC50). H460 cells (ATCC HTB-177 ([…]), 4,000 cells/well/200 μl) and LNCap cells (ATCC CRL-1740, 6,000 cells/well/200 μl) were seeded in a 96 well plate in RPMI medium (Invitrogen Corporation, Carlsbad, Calif.). After 24 hours, these plates were divided into 3 groups—Control group, 2 h treatment group and 3 day treatment group. In the 2 h treatment group, after 2 h the cells were rinsed to remove the test compound and incubated for 3 days, followed by staining with AlamarBlue. The cells in the 3 day treatment group were incubated for 3 days, followed by staining with AlamarBlue. In the Control group, AlamarBlue was added to the plate at (i) day 0 and (ii) day 3 and measured to establish the control reading.

LNCaP cells = assay: Antiproliferation assay (Alamar Blue), LNCaP cells; assay type: cell-based, human; conditions: 3 day treatment, read-out: GI50 LNCaP cell 3days
Procedure: as §1

PWR-1E cells [1] = assay: Antiproliferation assay, PWR-1E cells (Example 48); assay type: cell-based; conditions: read-out: IC50 PWR-1E cell
Procedure: as §1
The effect of lonidamine and analogs thereof on cell proliferation in PWR-1E cells (ATCC CRL-11611) was determined in an antiproliferative assay using PWR-1E cells (5000 cells/well) in Keratinocyte SFM medium (Gibco Products, Invitrogen Corporation, Carlsbad, Calif.) according to the procedure detailed in Example 47 above.

PWR-1E cells [2] = assay: Antiproliferation assay 3 days, PWR-1E cells (Example 49); assay type: cell-based; conditions: read-out: PWR1e cell line IC50
Procedure: (§2) To determine the effect of lonidamine analogs thereof on cell proliferation, the antiproliferative activity of these compounds was tested in a multi-well Alamar Blue based assay (at 3 days). Cell growth in the presence and absence of the test compound was compared, as measured by a fluoresence plate reader at excitation 550 nm and emission 590 nm (see Biosource International Inc., Tech Application Notes, Use of Alamar Blue in the measurement of Cell Viability and Toxity, Determining IC50). The following cell lines were tested: PWR-1E cells ((ATCC CRL-11611), 3500 cells/well/200 μl in Keratinocyte SFM medium (Gibco Products, Invitrogen Corporation, Carlsbad, Calif.)); DU-145 cells ((ATCC HTB-81), 4000 cells/well/200 μl in MEM Eagles medium (ATCC, Manassas, Va.)); PC3 cells ((ATCC CRL-1435), 4000 cells/200 μl in Modified HAM's F12 medium (ATCC, Manassas, Va.)); PNt2 cells ((Sigma-Aldrich, 95012613-1 VL), 4000 cells/well/200 μl in RPMI medium (Gibco Products, Invitrogen Corporation, Carlsbad, Calif.), BPH-1 ((DSMZ ACC-143), 4000 cells/well/200 μl in RPMI medium (Gibco Products, Invitrogen Corporation, Carlsbad, Calif), and NCI-H460 cells ((ATCC HTB-177), 4000 cells/well/200 μl in RPMI medium (Gibco Products, Invitrogen Corporation, Carlsbad, Calif.)). The cells were seeded in a 96 well plate in a medium specified above. After 24 hours, these plates were divided into 2 groups—Control group and 3 day treatment group. A test compound was added to each plate in the treatment groups at concentrations of […] as tabulated in Table 1 (in 2 μl 1 of 100% DMSO, final DMSO concentration 1% in all wells). For NCI-H460 cells, test compounds were added to each plate in the treatment groups at concentrations of 600, 300, 100, 30, 10, 3, and 1 μM (in 2 μl of 100% DMSO, final DMSO concentration 1% in all wells). The cells in the 3 day treatment group were incubated for 3 days, followed by staining with AlamarBlue. In the Control group, AlamarBlue was added to the plate at (i) day 0 and (ii) day 3 and measured to establish the control reading. […] For the NCI-H460 cells, the capacity of the cells to proliferate was measured 5 hours after addition of AlamarBlue using the same fluorescence plate reader as stated above.

SH rat prostate = assay: 5 day systemic administration in male SH rats, prostate; assay type: in vivo; set-up: inhibition in vivo: dose or concentration left out as unconfirmed; conditions: for Prostate shrinkage: male SH rats, oral daily for 5 days at 50 mg/ml, day 6; for inhibition in vivo: Rattus norvegicus, po, 144 h, read-out: Prostate shrinkage
Procedure: (§3) The effect of test compounds (lonidamine and lonidamine analogs) on the SH rat prostate was determined as follows. The test compound was orally administered daily for 5 days to male, SH rat, (n=6, 14 weeks old, Charles River Labs) at 50 mg/ml concentrations (as a 0.5% carboxymethylcellulose formulation). The control rats received an equal amount of the vehicle ([…]). Blood samples were collected 2 hours after administration on day 6, for pharmokinetic analysis of the compounds. On day 6 the rats were sacrificed and the entire prostate and the individual lobes (e.g., the ventral, dorso-lateral, and anterior lobes) were removed and weighed to measure absolute weights. Relative weights of prostate and individual lobes were calculated by dividing the absolute weight by the total body weight of the […]. Relative weights of the entire prostate, the dorsal prostate, and the ventral prostate were calculated by dividing the absolute weight by the total weight of the mouse. The histomorphology of the prostate was also analyzed and compared to that of the control or untreated prostate.

testes = assay: 5 day systemic administration in male SH rats, testis; assay type: in vivo, rat; set-up: inhibition in vivo: dose or concentration left out as unconfirmed; conditions: for Testis shrinkage: male SH rats, oral daily for 5 days at 50 mg/ml, day 6; for inhibition in vivo: Rattus norvegicus, po, 144 h, read-out: Testis shrinkage
[3] = 5 day systemic administration in male SH rats, pharmacokinetic blood samples; assay type: in vivo, rat; conditions: oral daily for 5 days at 50 mg/ml, blood 2 hours after administration; for concentration at 2 h: rat, in vivo, read-out: PK
Procedure: as §3

DU-145 cells = assay: Antiproliferation assay 3 days, DU-145 cells; assay type: cell-based; conditions: 3 day treatment; read-out: Du-145 cell line IC50
Procedure: as §2

BPH-1 = assay: Antiproliferation assay 3 days, BPH-1 cells; assay type: cell-based; conditions: 3 day treatment; read-out: BPH-1 cell line IC50
Procedure: as §2

PNt2 cells = assay: Antiproliferation assay 3 days, PNt2 cells; assay type: cell-based; conditions: 3 day treatment; read-out: PNT2c cell line IC50
Procedure: as §2

PC3 cells = assay: Antiproliferation assay 3 days, PC3 cells; assay type: cell-based, human; conditions: 3 day treatment; read-out: PC-3 cell line IC50
Procedure: as §2

NCI-H460 cells = assay: Antiproliferation assay 3 days, NCI-H460 cells; assay type: cell-based; conditions: Homo sapiens, NCI-H460, 72 h, read-out: NCI-H460 cell line IC50
Procedure: as §2

mouse prostate = assay: Mouse study, 10 day effect of Compound 3 on prostate; assay type: in vivo; conditions: mice
Procedure: (§4) The 10 day effect of Compound 3 on the mouse prostate and its 5 day effect on mouse testis were determined as in Example 51 by using 10 mice per experiment group and the results are illustrated graphically in FIGS. 14-18.

mouse testis = assay: Mouse study, 5 day effect of Compound 3 on testis; assay type: in vivo; conditions: mice
Procedure: as §4

advanced breast cancer = conditions: 28 evaluable patients, daily divided oral dose of 600 mg; cited from earlier work
HIF-1-alpha = conditions: cells cultured under hypoxia, cited from earlier work
[4] = test system: cell lines derived from human prostate cells; conditions: LNCaP vs PC3 cells; cited from earlier work
[5] = test system: primary cultures of human prostate epithelial cells; conditions: epithelial vs stromal cells; cited from earlier work
[6] = 3 day treatment, read-out: GI50 H460 cell 3 days
[7] = read-out: GI50 H460 cell 2 hr, 2 h treatment then 3 days incubation

SMILES | GI50 (H460 cells; [6]) [µM] | GI50 (H460 cells; [7]) [µM] | GI50 (LNCaP cells) [µM] | IC50 (PWR-1E cells [1]) [µM] | IC50 (PWR-1E cells [2]; 3 day treatment) [µM] | Prostate shrinkage (SH rat prostate) [%] | Testis shrinkage (testes) [%] | PK [3] [µg/mL] | other results
NC(=O)c1nn(Cc2ccc(Cl)cc2Cl)c2ccccc12 [Compound 5] | 20 | 40 | 20 | 4 | 5.5 | −8.1 | −3.5 | 12 | –
O=C(O)c1nn(Cc2ccc(Cl)cc2Cl)c2ccccc12 [Compound 12] | > 400 | 251 | 125 | 20 | 31 | 17 | 42 | 153 | IC50 (DU-145 cells): 214 µM; IC50 (BPH-1): 230 µM; IC50 (PNt2 cells): 198 µM; IC50 (PC3 cells): 195 µM
O=C(NO)c1nn(Cc2ccc(Cl)cc2Cl)c2ccc(Cl)cc12 [Compound 54] | – | – | – | – | 1.3 | 6.8 | 0.3 | 120 | –
CS(=O)(=O)NC(=O)c1nn(Cc2ccc(Cl)cc2Cl)c2ccccc12 [Compound 4] | 158 | 281 | 178 | 18 | – | – | – | – | –
N#Cc1ccc(Cn2nc(C(=O)O)c3ccccc32)c(Cl)c1 [Compound 97] | – | – | – | – | – | – | – | – | IC50 (PWR-1E cells [2]; Homo sapiens, PWR-1E, 72 h): 135 µM; IC50 (NCI-H460 cells): > 300 µM; inhibition in vivo (SH rat prostate): 5.5%; inhibition in vivo (testes): 0.9%; concentration at 2 h [3]: 0 µg/mL
O=C(NO)c1nn(Cc2ccccc2)c2ccccc12 [Compound 2] | 31.6 | 400 | – | 18 | 18 | – | – | – | –
O=C(O)c1nn(Cc2ccc(Cl)cc2)c2ccc(Cl)cc12 [Compound 64] | – | – | – | – | – | – | – | – | IC50 (PWR-1E cells [2]; Homo sapiens, PWR-1E, 72 h): > 30 µM; IC50 (NCI-H460 cells): 159 µM; inhibition in vivo (SH rat prostate): -0.4%; inhibition in vivo (testes): -1.3%; concentration at 2 h [3]: 614 µg/mL
O=C(O)c1nn(Cc2c(Cl)cccc2Cl)c2ccccc12 [Compound 3] | 250 | 398 | 180 | 25 | 69 | −2.9 | 0.4 | 243 | IC50 (DU-145 cells): 224 µM; IC50 (BPH-1): 215 µM; IC50 (PNt2 cells): 257 µM; IC50 (PC3 cells): 191 µM; absolute anterior prostate weight (FIG. 16) (mouse prostate): reduction; absolute dorsal prostate weight (FIG. 15) (mouse prostate): reduction; absolute ventral prostate weight (FIG. 14) (mouse prostate): reduction; absolute left testis weight (FIG. 18) (mouse testis): reduction; absolute right testis weight (FIG. 17) (mouse testis): reduction
CN(O)C(=O)c1nn(Cc2ccc(Cl)cc2Cl)c2ccccc12 [Compound 56] | – | – | – | – | 2.6 | – | – | – | IC50 (DU-145 cells): 3.25 µM; IC50 (BPH-1): 1.65 µM; IC50 (PNt2 cells): 1.25 µM; IC50 (PC3 cells): 4 µM
OCc1nn(Cc2ccc(Cl)cc2Cl)c2ccccc12 [Compound 58] | – | – | – | – | – | – | – | – | inhibition in vivo (SH rat prostate): 12.9%; inhibition in vivo (testes): 26.5%; concentration at 2 h [3]: 0 µg/mL
O=C(O)c1nn(Cc2ccc(Cl)cc2Cl)c2ccccc12 [lonidamine, 1-(2,4-dichlorobenzyl)-1H-indazole-3-carboxylic acid] | – | – | – | – | – | – | – | – | minor response (advanced breast cancer): 11%; partial response (advanced breast cancer): 11%; reduction of HIF-1-alpha expression/accumulation (nuclear fraction) (HIF-1-alpha; 200 micromolar): about 2 fold; reduction of HIF-1-alpha expression/accumulation (nuclear fraction) (HIF-1-alpha; higher lonidamine concentrations): more than 5 fold; apoptosis in cell lines derived from human prostate cells [4]: induces apoptosis; apoptosis in primary cultures of human prostate epithelial cells [5]: induces apoptosis
